Measured values reported in article PMC4648050, “Discovery of Inhibitors of Trypanosoma brucei by Phenotypic Screening of a Focused Protein Kinase Library” (Chemmedchem, 2015).

Tests used:
Assay type in all cases: biochemical, human/mammalian
Conditions in all cases: compound at 10 μM, read-out: % of activity respect of the control
[1] = target: T1, IKKb (Homo sapiens, UniProt O14920); experiment: Kinase panel: IKKb
T1 sequence (O14920 1-756): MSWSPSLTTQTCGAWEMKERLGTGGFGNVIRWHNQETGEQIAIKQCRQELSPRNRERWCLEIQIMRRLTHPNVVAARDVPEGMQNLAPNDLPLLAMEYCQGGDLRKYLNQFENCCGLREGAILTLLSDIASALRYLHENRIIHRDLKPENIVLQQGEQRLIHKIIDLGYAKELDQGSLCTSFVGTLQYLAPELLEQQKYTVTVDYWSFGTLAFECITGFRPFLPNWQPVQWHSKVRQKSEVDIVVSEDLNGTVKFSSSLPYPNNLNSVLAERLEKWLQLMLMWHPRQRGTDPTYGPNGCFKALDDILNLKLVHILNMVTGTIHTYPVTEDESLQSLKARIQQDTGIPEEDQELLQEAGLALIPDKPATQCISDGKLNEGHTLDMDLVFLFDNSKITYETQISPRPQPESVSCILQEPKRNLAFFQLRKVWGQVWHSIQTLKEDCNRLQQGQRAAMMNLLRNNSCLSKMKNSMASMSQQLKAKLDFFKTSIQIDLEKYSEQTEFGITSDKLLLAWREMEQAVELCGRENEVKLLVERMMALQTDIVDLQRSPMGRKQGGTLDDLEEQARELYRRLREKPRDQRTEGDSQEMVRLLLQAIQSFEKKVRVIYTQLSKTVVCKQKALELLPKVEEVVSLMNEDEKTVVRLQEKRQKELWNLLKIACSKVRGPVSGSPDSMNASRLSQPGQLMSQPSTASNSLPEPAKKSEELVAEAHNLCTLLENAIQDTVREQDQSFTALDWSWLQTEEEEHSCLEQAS
Experimental: (§1) The DDU kinase-focused compound set contains lead-like scaffolds that are designed to target protein kinases; they have kinase hinge binding motifs. Four of the 1H-imidazopyrazinones were screened against a human/mammalian kinase panel at the University of Dundee (http://www.kinase-screen.mrc.ac.uk) at a concentration of 10 μM. At the time of testing the panel contained 79 mammalian kinases selected to provide a broad coverage of the mammalian kinome (∼500 kinases in the human genome).[3] None of the compounds were active against any of the kinases at 10 μM.

[2] = target: PIM2 (Homo sapiens, UniProt Q9P1W9); experiment: Kinase panel: PIM2
Experimental: as §1

[3] = target: T2, p38g MAPK (Homo sapiens, UniProt P53778); experiment: Kinase panel: p38g MAPK
T2 sequence (P53778 1-367): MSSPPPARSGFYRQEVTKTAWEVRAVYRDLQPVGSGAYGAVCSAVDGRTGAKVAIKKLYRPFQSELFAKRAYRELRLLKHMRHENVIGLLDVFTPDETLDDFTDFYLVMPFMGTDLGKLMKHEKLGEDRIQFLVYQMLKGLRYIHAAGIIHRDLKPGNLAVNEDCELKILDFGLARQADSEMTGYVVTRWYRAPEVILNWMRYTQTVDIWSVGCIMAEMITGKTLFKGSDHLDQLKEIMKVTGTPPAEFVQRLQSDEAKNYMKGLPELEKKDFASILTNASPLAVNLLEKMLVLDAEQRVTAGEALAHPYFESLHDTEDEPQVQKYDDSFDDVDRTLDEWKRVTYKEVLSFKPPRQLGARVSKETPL
Experimental: as §1

[4] = target: PAK5 (Homo sapiens, UniProt Q9P286); experiment: Kinase panel: PAK5
Experimental: as §1

[5] = target: CAMK1 (Homo sapiens, UniProt Q14012); experiment: Kinase panel: CAMK1
Experimental: as §1

[6] = target: SmMLCK (Homo sapiens, UniProt Q15746); experiment: Kinase panel: SmMLCK
Experimental: as §1

[7] = target: PAK4 (Homo sapiens, UniProt O96013); experiment: Kinase panel: PAK4
Experimental: as §1

[8] = target: PLK1 (Okadaic Acid) (Homo sapiens, UniProt P53350); experiment: Kinase panel: PLK1 (Okadaic Acid)
Experimental: as §1

[9] = target: SYK (Homo sapiens, UniProt P43405); experiment: Kinase panel: SYK
Experimental: as §1

[10] = target: PIM3 (Homo sapiens, UniProt Q86V86); experiment: Kinase panel: PIM3
Experimental: as §1

[11] = target: Lck (Homo sapiens, UniProt P06239); experiment: Kinase panel: Lck
Experimental: as §1

[12] = target: T3, TBK1 (Homo sapiens, UniProt Q9UHD2); experiment: Kinase panel: TBK1
T3 sequence (Q9UHD2 1-729): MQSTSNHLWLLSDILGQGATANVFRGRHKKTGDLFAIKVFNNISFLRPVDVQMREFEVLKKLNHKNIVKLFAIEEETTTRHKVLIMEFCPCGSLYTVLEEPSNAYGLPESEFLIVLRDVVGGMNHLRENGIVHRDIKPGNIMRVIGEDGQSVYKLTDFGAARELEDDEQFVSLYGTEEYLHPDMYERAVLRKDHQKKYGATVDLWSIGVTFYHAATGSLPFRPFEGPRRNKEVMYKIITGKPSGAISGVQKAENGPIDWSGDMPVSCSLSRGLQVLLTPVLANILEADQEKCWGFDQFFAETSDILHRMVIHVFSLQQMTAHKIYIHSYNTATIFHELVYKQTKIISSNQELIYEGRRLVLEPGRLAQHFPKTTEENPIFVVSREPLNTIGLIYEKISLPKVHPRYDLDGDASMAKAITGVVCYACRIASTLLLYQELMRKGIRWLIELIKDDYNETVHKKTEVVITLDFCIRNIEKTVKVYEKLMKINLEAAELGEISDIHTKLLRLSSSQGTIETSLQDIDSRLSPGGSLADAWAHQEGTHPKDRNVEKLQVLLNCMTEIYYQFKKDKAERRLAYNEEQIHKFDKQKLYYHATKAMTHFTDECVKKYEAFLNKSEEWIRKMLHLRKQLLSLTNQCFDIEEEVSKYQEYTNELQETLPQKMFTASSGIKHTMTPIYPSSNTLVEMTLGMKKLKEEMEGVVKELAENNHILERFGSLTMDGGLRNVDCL
Experimental: as §1

[13] = target: RSK2 (Homo sapiens, UniProt P51812); experiment: Kinase panel: RSK2
Experimental: as §1

Sequence of PIM2 (Q9P1W9 whole entry): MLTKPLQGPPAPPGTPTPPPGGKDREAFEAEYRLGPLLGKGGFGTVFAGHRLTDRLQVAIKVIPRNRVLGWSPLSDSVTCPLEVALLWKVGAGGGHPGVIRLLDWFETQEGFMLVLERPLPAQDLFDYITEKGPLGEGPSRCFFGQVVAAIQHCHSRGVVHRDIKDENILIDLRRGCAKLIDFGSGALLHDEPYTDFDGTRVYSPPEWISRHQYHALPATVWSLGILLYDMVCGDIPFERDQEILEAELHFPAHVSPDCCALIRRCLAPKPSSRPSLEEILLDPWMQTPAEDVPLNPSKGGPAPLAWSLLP
Sequence of CAMK1 (Q14012 whole entry): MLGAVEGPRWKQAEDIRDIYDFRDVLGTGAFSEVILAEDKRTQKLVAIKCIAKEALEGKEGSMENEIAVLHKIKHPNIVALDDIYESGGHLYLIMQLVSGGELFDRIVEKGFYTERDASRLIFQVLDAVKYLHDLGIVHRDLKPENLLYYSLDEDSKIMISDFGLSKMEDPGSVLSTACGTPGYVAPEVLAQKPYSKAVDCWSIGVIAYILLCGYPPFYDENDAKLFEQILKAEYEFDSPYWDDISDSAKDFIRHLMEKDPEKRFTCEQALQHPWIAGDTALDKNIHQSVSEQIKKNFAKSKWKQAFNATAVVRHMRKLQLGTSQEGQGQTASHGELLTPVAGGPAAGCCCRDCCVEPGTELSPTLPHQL
Sequence of Lck (P06239 whole entry): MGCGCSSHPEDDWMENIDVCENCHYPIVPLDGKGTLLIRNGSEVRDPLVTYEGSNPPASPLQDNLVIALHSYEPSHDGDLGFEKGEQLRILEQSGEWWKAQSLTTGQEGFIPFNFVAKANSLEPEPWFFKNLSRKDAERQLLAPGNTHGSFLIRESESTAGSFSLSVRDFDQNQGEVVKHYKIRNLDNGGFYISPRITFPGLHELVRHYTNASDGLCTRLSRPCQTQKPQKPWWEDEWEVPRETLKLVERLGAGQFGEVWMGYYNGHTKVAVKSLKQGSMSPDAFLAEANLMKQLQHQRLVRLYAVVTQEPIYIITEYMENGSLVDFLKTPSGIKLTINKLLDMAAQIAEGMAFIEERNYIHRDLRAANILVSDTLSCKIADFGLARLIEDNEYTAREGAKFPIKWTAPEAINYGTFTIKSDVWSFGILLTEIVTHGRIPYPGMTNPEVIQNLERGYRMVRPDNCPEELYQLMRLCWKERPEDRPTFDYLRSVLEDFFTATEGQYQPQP
Sequence of SmMLCK (Q15746 923-1914): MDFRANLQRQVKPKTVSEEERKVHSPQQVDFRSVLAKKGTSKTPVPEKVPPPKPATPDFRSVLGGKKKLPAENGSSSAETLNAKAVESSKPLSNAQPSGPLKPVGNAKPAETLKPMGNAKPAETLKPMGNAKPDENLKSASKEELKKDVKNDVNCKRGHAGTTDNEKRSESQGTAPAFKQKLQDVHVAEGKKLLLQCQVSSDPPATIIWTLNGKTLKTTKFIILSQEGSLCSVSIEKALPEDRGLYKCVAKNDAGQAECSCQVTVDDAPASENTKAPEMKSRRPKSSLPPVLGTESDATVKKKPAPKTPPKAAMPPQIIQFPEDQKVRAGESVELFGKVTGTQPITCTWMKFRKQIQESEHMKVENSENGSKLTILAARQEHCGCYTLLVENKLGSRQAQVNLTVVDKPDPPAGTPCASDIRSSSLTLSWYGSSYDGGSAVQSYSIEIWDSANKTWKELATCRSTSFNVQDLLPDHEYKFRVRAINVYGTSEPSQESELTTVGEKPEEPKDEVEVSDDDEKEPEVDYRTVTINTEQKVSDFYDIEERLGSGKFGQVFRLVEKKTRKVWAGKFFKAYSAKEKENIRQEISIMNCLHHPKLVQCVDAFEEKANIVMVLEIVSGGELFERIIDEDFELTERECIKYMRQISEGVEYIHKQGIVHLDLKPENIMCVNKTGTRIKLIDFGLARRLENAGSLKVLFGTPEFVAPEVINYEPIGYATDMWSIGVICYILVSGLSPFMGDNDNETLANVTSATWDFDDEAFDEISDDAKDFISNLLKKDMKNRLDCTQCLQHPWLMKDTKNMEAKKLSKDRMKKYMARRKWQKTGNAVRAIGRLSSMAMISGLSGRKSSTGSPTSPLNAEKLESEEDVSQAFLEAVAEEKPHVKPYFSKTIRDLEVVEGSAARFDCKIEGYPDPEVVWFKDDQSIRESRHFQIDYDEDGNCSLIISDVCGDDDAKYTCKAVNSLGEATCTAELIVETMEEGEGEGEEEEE
Sequence of PAK5 (Q9P286 whole entry): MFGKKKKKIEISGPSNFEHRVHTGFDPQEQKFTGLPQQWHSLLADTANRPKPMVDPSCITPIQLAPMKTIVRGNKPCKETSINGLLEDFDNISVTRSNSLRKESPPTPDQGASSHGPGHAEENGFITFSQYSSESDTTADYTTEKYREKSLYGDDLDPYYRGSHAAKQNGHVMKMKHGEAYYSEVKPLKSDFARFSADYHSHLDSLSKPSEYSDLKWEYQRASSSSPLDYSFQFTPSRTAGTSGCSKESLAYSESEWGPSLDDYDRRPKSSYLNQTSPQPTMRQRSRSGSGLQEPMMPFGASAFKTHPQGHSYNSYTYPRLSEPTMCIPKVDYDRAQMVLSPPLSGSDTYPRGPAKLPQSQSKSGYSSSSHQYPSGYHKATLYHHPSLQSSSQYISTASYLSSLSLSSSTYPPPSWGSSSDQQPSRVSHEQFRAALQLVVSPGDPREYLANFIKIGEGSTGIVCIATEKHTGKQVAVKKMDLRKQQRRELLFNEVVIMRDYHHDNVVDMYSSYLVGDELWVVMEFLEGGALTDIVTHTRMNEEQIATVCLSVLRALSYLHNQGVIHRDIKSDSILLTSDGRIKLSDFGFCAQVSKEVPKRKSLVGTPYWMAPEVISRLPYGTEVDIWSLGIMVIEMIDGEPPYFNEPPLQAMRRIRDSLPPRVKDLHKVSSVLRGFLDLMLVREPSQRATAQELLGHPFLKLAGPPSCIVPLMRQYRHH
Sequence of PLK1 (Okadaic Acid) (P53350 whole entry): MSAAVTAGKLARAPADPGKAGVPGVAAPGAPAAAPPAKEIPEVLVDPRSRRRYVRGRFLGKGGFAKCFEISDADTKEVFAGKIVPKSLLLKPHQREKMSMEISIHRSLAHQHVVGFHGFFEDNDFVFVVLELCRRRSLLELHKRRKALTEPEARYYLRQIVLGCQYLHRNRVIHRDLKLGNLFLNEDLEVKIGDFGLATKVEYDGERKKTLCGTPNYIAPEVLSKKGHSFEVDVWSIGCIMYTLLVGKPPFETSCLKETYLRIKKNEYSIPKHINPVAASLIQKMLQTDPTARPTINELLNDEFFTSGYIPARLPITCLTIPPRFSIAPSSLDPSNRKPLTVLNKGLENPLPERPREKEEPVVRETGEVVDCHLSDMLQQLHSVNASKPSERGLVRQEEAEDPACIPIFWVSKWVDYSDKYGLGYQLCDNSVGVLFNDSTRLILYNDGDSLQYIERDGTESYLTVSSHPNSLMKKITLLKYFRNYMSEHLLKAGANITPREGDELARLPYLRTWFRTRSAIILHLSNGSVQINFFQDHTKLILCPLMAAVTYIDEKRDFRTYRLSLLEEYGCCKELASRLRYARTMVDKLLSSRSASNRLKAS
Sequence of RSK2 (P51812 whole entry): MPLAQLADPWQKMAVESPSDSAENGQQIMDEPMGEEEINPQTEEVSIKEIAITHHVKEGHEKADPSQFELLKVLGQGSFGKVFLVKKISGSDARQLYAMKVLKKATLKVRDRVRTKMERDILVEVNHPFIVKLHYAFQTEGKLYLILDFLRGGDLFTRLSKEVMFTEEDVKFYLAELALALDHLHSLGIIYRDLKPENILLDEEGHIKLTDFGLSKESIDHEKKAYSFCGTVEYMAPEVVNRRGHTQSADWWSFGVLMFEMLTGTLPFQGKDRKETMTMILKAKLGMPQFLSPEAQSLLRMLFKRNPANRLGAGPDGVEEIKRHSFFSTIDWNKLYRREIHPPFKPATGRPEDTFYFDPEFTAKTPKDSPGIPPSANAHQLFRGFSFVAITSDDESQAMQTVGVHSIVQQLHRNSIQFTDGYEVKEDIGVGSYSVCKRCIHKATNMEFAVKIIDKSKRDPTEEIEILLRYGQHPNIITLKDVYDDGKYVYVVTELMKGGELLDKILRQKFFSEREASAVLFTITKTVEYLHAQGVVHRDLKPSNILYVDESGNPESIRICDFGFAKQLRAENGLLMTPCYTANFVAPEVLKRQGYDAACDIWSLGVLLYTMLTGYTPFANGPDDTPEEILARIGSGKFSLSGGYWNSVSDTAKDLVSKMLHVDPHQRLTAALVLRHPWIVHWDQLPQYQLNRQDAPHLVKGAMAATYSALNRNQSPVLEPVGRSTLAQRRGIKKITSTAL

Structure (SMILES) | remaining activity at 10 µM [1] | remaining activity at 10 µM [2] | remaining activity at 10 µM [3] | remaining activity at 10 µM [4] | remaining activity at 10 µM [5] | remaining activity at 10 µM [6] | remaining activity at 10 µM [7] | remaining activity at 10 µM [8] | remaining activity at 10 µM [9] | remaining activity at 10 µM [10] | remaining activity at 10 µM [11] | remaining activity at 10 µM [12] | remaining activity at 10 µM [13]
CC(c1ccccc1)n1c(=O)[nH]c2ncc(-c3ccc(F)cc3)nc21 (stereo not drawn) [Compound 1] | 103% | 113% | 98% | 84% | 87% | 80% | 101% | 96% | 97% | 83% | 90% | 95% | 110%
O=c1[nH]c2ncc(-c3ccc(F)cc3)nc2n1CC1CC1 [Compound 10] | 105% | 111% | 94% | 95% | 83% | 74% | 106% | 109% | 98% | 89% | 99% | 95% | 113%
O=c1[nH]c2ncc(-c3ccc(F)cc3)nc2n1C1CCCCC1 [Compound 12, 1-Cyclohexyl-6-(4-fluorophenyl)-1H-imidazo[4,5-b]pyrazin-2(3H)-one] | 94% | 111% | 98% | 100% | 88% | 89% | 103% | 96% | 100% | 90% | 105% | 92% | 104%
C[C@H](c1ccccc1)n1c(=O)[nH]c2ncc(-c3ccccc3)nc21 [Compound 14, (R)-6-Phenyl-1-(1-phenylethyl)-1H-imidazo[4,5-b]pyrazin-2(3H)-one] | 77% | 96% | 91% | 80% | 72% | 64% | 86% | – | 84% | 83% | 89% | 100% | 101%
